According to PubChem BioAssay (NCI):
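All cell lines were grown in 96-well plates and treated with compound for 48 hours. The concentration for 50% growth inhibition is given as GI50. TGI is the concentration that stops growth completely.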

Legend:
Assay in all cases: NCI anticancer screen, dose series, 48 h
[1] = tested on: OVCAR-4 ovarian
[2] = tested on: MALME-3M melanoma
[3] = tested on: SNB-19 CNS
[4] = tested on: SK-MEL-28 melanoma
[5] = tested on: HOP-92 NSCLC
[6] = tested on: HS 578T breast
[7] = tested on: CCRF-CEM leukemia
[8] = tested on: HT29 colon
[9] = tested on: SF-268 CNS
[10] = tested on: HCC-2998 colon
[11] = tested on: SW-620 colon
[12] = tested on: PC-3 prostate
[13] = tested on: U251 CNS
[14] = tested on: SK-MEL-5 melanoma
[15] = tested on: NCI-H460 lung
[16] = tested on: IGROV1 ovarian
[17] = tested on: OVCAR-8 ovarian
[18] = tested on: UACC-62 melanoma
[19] = tested on: SK-OV-3 ovarian
[20] = tested on: UACC-257 melanoma
[21] = tested on: SN12C renal
[22] = tested on: OVCAR-3 ovarian
[23] = tested on: NCI-H522 lung
[24] = tested on: NCI/ADR-RES ovarian
[25] = tested on: KM12 colon
[26] = tested on: MDA-MB-435
[27] = tested on: SK-MEL-2 melanoma
[28] = tested on: RXF 393 renal
[29] = tested on: SF-295 CNS
[30] = tested on: OVCAR-5 ovarian
[31] = tested on: A498 renal
[32] = tested on: A549 NSCLC
[33] = tested on: TK-10 renal
[34] = tested on: MOLT-4 leukemia
[35] = tested on: M14 melanoma
[36] = tested on: ACHN renal
[37] = tested on: HL-60(TB) leukemia
[38] = tested on: MCF7 breast
[39] = tested on: SF-539 CNS
[40] = tested on: DU-145 prostate
[41] = tested on: UO-31 renal
[42] = tested on: 786-0 renal
[43] = tested on: SNB-75 CNS
[44] = tested on: MDA-MB-231 breast
[45] = tested on: NCI-H226 lung
[46] = tested on: HOP-62 NSCLC
[47] = tested on: BT-549 breast

In the case of `CC(=O)/C=C/c1ccc(OCc2ccc(C(C)(C)C)cc2)cc1`, the GI50 [1] is reported as over 1000 µM, the TGI [1] is reported as over 1000 µM and the GI50 [2] is reported as over 1000 µM. For the same compound, the TGI [2] was over 1000 µM, the GI50 [3] was over 1000 µM and the TGI [3] was over 1000 µM. It also gave a GI50 [4] of over 1000 µM, a TGI [4] of over 1000 µM and a GI50 [5] of over 1000 µM. For the same compound, the TGI [5] was over 1000 µM, the GI50 [6] was over 1000 µM and the TGI [6] was over 1000 µM. The GI50 [7] was over 1000 µM, the TGI [7] was over 1000 µM and the GI50 [8] was 40.7 µM. The TGI [8] was over 1000 µM, the GI50 [9] was over 1000 µM and the TGI [9] was over 1000 µM. The GI50 [10] was over 1000 µM, the TGI [10] was over 1000 µM and the GI50 [11] was over 1000 µM. For the same compound, the TGI [11] was over 1000 µM, the GI50 [12] was over 1000 µM and the TGI [12] was over 1000 µM. The GI50 [13] was over 1000 µM, the TGI [13] was over 1000 µM and the GI50 [14] was 46.5 µM. It also gave a TGI [14] of over 1000 µM, a GI50 [15] of over 1000 µM and a TGI [15] of over 1000 µM. For the same compound, the GI50 [16] was over 1000 µM, the TGI [16] was over 1000 µM and the GI50 [17] was over 1000 µM. For the same compound, the TGI [17] was over 1000 µM, the GI50 [18] was over 1000 µM and the TGI [18] was over 1000 µM. For the same compound, the GI50 [19] was over 1000 µM, the TGI [19] was over 1000 µM and the GI50 [20] was over 1000 µM. The TGI [20] was over 1000 µM, the GI50 [21] was over 1000 µM and the TGI [21] was over 1000 µM. The GI50 [22] was over 1000 µM, the TGI [22] was over 1000 µM and the GI50 [23] was over 1000 µM. It also gave a TGI [23] of over 1000 µM, a GI50 [24] of over 1000 µM and a TGI [24] of over 1000 µM. The GI50 [25] was over 1000 µM, the TGI [25] was over 1000 µM and the GI50 [26] was over 1000 µM. It also gave a TGI [26] of over 1000 µM, a GI50 [27] of over 1000 µM and a TGI [27] of over 1000 µM. It also gave a GI50 [28] of over 1000 µM, a TGI [28] of over 1000 µM and a GI50 [29] of over 1000 µM. For the same compound, the TGI [29] was over 1000 µM, the GI50 [30] was over 1000 µM and the TGI [30] was over 1000 µM. The GI50 [31] was over 1000 µM, the TGI [31] was over 1000 µM and the GI50 [32] was over 1000 µM. It also gave a TGI [32] of over 1000 µM, a GI50 [33] of over 1000 µM and a TGI [33] of over 1000 µM. It also gave a GI50 [34] of over 1000 µM, a TGI [34] of over 1000 µM and a GI50 [35] of over 1000 µM. It also gave a TGI [35] of over 1000 µM, a GI50 [36] of over 1000 µM and a TGI [36] of over 1000 µM. It also gave a GI50 [37] of over 1000 µM, a TGI [37] of over 1000 µM and a GI50 [38] of over 1000 µM. For the same compound, the TGI [38] was over 1000 µM, the GI50 [39] was over 1000 µM and the TGI [39] was over 1000 µM. The GI50 [40] was over 1000 µM, the TGI [40] was over 1000 µM and the GI50 [41] was over 1000 µM. For the same compound, the TGI [41] was over 1000 µM, the GI50 [42] was over 1000 µM and the TGI [42] was over 1000 µM. For the same compound, the GI50 [43] was over 1000 µM, the TGI [43] was over 1000 µM and the GI50 [44] was over 1000 µM. For the same compound, the TGI [44] was over 1000 µM, the GI50 [45] was over 1000 µM and the TGI [45] was over 1000 µM. For the same compound, the GI50 [46] was over 1000 µM and the TGI [46] was over 1000 µM.

Compound `Clc1cc(Cl)cc(-c2ccc(-c3ccc(/C=N/NC4=NCCN4)cc3)s2)c1` has a GI50 [4] of 2.09 µM, a TGI [4] of 4.69 µM and a GI50 [6] of 2.3 µM. The TGI [6] was 6.41 µM, the GI50 [9] was 1.98 µM and the TGI [9] was 4.67 µM. The GI50 [47] was 9.24 µM, the TGI [47] was 57.4 µM and the GI50 [14] was 4.61 µM. For the same compound, the TGI [14] was over 100 µM, the GI50 [25] was 1.71 µM and the TGI [25] was 3.12 µM. For the same compound, the GI50 [31] was 1.39 µM, the TGI [31] was 5.78 µM and the GI50 [39] was 1.7 µM. The TGI [39] was 3.07 µM, the GI50 [40] was 1.77 µM and the TGI [40] was 3.2 µM. For the same compound, the GI50 [43] was 1.78 µM, the TGI [43] was 7.93 µM and the GI50 [45] was 4.16 µM. The TGI [45] was over 100 µM.
